# Biological target: T1, T2R16 (hT2R16) (Homo sapiens, UniProt Q9NYV7)
# T1 construct: gene TAS2R16; coding region with N-terminal rSST3 tag (45 N-terminal residues of rat somatostatin receptor subtype 3), pcDNA5, transient in HEK293 PEAKrapid Galpha16i/o44 cells
# T1 sequence (Q9NYV7 1-291): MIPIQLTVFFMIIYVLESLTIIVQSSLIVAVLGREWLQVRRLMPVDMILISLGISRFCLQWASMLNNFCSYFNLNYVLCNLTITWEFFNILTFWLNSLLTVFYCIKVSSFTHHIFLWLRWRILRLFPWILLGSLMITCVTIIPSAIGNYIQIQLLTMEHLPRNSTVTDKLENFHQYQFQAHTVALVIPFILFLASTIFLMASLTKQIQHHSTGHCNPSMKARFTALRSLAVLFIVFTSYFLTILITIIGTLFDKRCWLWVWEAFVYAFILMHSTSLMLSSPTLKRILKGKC
# Test: FLIPR calcium imaging (Cal520-AM)
# Format: cell-based
smiles,measurement,value
"CC(C)/C(=N/OS(=O)(=O)O)S[C@@H]1O[C@H](CO)[C@@H](O)[C@H](O)[C@H]1O [compound 3, glucoputranjivin]",EC50,> 1000 µM
